Assay results from patent US20250177579A1, “NOVEL COMPOUND, a-SYNUCLEIN AGGREGATE BINDER, AND USE THEREOF” (NATIONAL INSTITUTES FOR QUANTUM SCIENCE AND TECHNOLOGY, priority 2022, published 2025).

Legend:
α-synuclein lesions = molecular target: T1, α-synuclein lesions (Mus musculus, UniProt O55042); assay: In vivo two-photon laser scanning fluorescence microscopy of α-synuclein fibril-inoculated mouse; settings: 50 μl of 0.1% DMSO solution, imaging 30 minutes after administration, FIG. 4; for binding to α-synuclein lesions in vivo: excitation 900 nm
T1 construct: from tissue; host or cells: brain of a C57/BL/6 mouse inoculated in the striatum with recombinant mouse α-synuclein fibrils (made in E. coli)
Method: First, mouse α-synuclein was expressed in and extracted from E. coli as a recombinant protein, and then incubated in vitro to form insoluble α-synuclein aggregates. The α-synuclein aggregates were then inoculated into the striatum of a mouse. […] Note that the inoculation of the α-synuclein aggregates into the striatum of the mouse was carried out in the following manner. First, hair on the head of a 9-week-old C57/BL/6 male mouse which had been anesthetized with 1.5% (v/v) isoflurane was removed, and the scalp was disinfected with isodine, followed by application of xylocaine and incision in the scalp to expose the skull. Then, a hole was drilled in the skull at a position of 0.05 mm posterior to the bregma and 2 mm lateral to the midline, and 3 μl of an α-synuclein fibril solution (mouse α-synuclein fibril (4 mg/ml) in saline) was injected into a position 2 mm ventral to the brain surface with use of a glass pipette. The scalp was then returned and sutured.
A model mouse was anesthetized with 1.5% (v/v) isoflurane 4 or more months after inoculation of an α-synuclein fibril solution. Then, a cranial window was placed on the model mouse in accordance with the Seylaz-Tomita method (Tomita et al. J Cereb Blood Flow Metab 25, 858-67, 2005). Two or more weeks after the placement of the cranial window, the mouse was fixed under a two-photon laser fluorescence microscope, 100 μl of physiological saline containing 5 mmol/1 Sulforhodamine 101 was intraperitoneally administered to the mouse, and then intravital two-photon fluorescence imaging was carried out at an excitation wavelength of 900 nm. Thereafter, 50 μl of DMSO solution containing C05-05, SPAL-T-83, SPAL-T-95, or SPAL-E-17 at a 0.1% concentration was intraperitoneally administered to the mouse. Thirty minutes after the administration, intravital two-photon fluorescence imaging was carried out at an excitation wavelength of 900 nm. Detection wavelengths for C05-05, SPAL-T-83, SPAL-T-95, and SPAL-E-17 were set at 500 nm to 550 nm, and a detection wavelength for Sulforhodamine 101 was set at 573 nm to 648 nm. In FIG. 4, each arrow indicates a blood vessel, and each arrowhead indicates fluorescence from the compound binding to an α-synuclein lesion.

[1] = molecular target: T2, phosphorylated α-synuclein (Mus musculus, UniProt O55042); assay: In vitro fluorescence microscope measurement, brain sections of α-synuclein fibril-inoculated mouse; format: binding; settings: 30 μmol/l test compound, 20% ethanol, co-stained with pS129 antibody, FIG. 3
T2 construct: from tissue; host or cells: brain of a C57/BL/6 mouse inoculated in the striatum with recombinant mouse α-synuclein fibrils (made in E. coli)
Method: When mouse α-synuclein is expressed in and extracted from E. coli as a recombinant protein and then incubated in vitro, insoluble α-synuclein aggregates are formed. By inoculating these α-synuclein aggregates into the striatum of a mouse, the α-synuclein aggregates propagate to surrounding areas via the neural circuitry, and an α-synuclein lesion is observed in the cerebral neocortex several months later (Masuda-Suzukake et al. Acta Neuropathol Commun 2, 88, 2014; Shimozawa et al. Acta Neuropathol Commun 5, 12, 2017). By extracting the brain of this mouse, preparing a section, and then analyzing the section by fluorescent staining, it is possible to examine whether the compound in accordance with an embodiment of the present invention binds to a lesion caused by phosphorylated α-synuclein.
First, mouse α-synuclein was expressed in and extracted from E. coli as a recombinant protein, and then incubated in vitro to form insoluble α-synuclein aggregates. The α-synuclein aggregates were then inoculated into the striatum of a mouse. […] Note that the inoculation of the α-synuclein aggregates into the striatum of the mouse was carried out in the following manner. […]
The brain of this α-synuclein fibril-inoculated mouse was extracted, and then sections were prepared. The sections were analyzed by fluorescent staining. […] After the section was mounted in a mounting medium (VECTASHIELD H-1000), an image of an α-synuclein aggregate-enriched area on the section was obtained with use of a fluorescence microscope (DM4000). […] After the section was subjected to immunohistochemical staining with use of an anti-phosphorylated α-synuclein monoclonal antibody (pS129, abcam, ab59264) (1:1000) and then mounted in a mounting medium (VECTASHIELD H-1000), an image of the same area as above was obtained with use of a fluorescence microscope (DM4000). […] In FIG. 3, each arrowhead indicates a lesion, caused by phosphorylated α-synuclein, in the brain of the α-synuclein fibril-inoculated mouse and fluorescence from the compound binding to the phosphorylated α-synuclein.

[2] = tested on: tau aggregates or amyloid-β aggregates; assay: In vitro fluorescence microscope measurement, AD patient brain sections compared with DLB sections; format: binding, human; settings: for binding to α-synuclein aggregates compared with binding to tau aggregates or amyloid-β aggregates formed in the brain of the AD patient: 30 μmol/l test compound, DLB amygdala vs AD superior temporal gyrus sections; for ratio of binding to α-synuclein aggregates to binding to tau aggregates or amyloid-β aggregates, compared with the ratio of C05-05: 30 μmol/l, fluorescence intensity quantified, FIG. 2, comparator C05-05
Excerpt: (§1) Postmortem human brains were obtained in autopsies carried out with respect to a patient with dementia with Lewy bodies (DLB) and a patient with Alzheimer's disease (AD). In a cryostat (HM560, Carl Zeiss), frozen tissue from the DLB patient was sliced into sections each having a thickness of 20 μm. Brain tissue from the AD patient was fixed in 10% neutral buffered formalin, embedded in a paraffin block, and sliced into sections each having a thickness of 6 μm.
(§2) Each brain section and a 30 μmol/l test compound were incubated in a 50% ethanol solution at room temperature for 30 minutes. Subsequently, the sections were rinsed with 50% ethanol for 5 minutes and dipped into double-distilled water twice for 3 minutes each. After the section was mounted in a mounting medium (VECTASHIELD H-1000, Vector Laboratories), an image of a lesion-enriched area on the section was obtained with use of a fluorescence microscope (DM4000, Leica). In FIG. 1, each arrowhead indicates fluorescence from the compound binding to α-synuclein aggregates in the brain of the DLB patient, each arrow indicates fluorescence from the compound binding to amyloid-β aggregates in the brain of the AD patient, and an asterisk indicates fluorescence from the compound binding to tau aggregates in the brain of the AD patient. The fluorescence intensities of lesion-enriched areas and lesion-free areas (background) were quantified with use of analysis software (Image J). Note that SPAL-T-83, SPAL-T-95, and SPAL-E-17 were each used as the test compound. Note also that ((E)-1-fluoro-3-(2-(4-(6-(methylamino)pyridin-3-yl)but-1-en-3-ynyl)benzo[d]thiazol-6-yloxy)propan-2-ol (C05-05) synthesized by the method disclosed in Synthetic Example 21 of Patent Literature 2 (International Publication No. WO 2020/174963) listed above was used as a control compound.

α-synuclein aggregates [3] = molecular target: T3, α-synuclein aggregates (Homo sapiens, UniProt P37840); assay: In vitro fluorescence microscope measurement, DLB patient brain sections; format: binding; set-up: from tissue; host or cells: amygdala sections of a DLB patient's postmortem brain; settings: 30 μmol/l test compound, 50% ethanol, amygdala sections of DLB patient, FIGS. 1 and 2
Excerpt: as §1, §2

α-synuclein aggregates [4] = molecular target: T3, α-synuclein aggregates; settings: background art, cited from earlier work

binding to α-synuclein lesions in vivo (α-synuclein lesions)	binding to α-synuclein aggregates compared with binding to tau aggregates or amyloid-β aggregates formed in the brain of the AD patient [2]	ratio of binding to α-synuclein aggregates to binding to tau aggregates or amyloid-β aggregates, compared with the ratio of C05-05 [2]	binding to α-synuclein aggregates formed in the brain of the DLB patient (fluorescence) (α-synuclein aggregates [3])	Compound	delivery into the brain and neurons of the living body (α-synuclein lesions)	binding to a lesion caused by phosphorylated α-synuclein [1]	binding selectivity with respect to the α-synuclein aggregates (α-synuclein aggregates [4]; binds to amyloid-β aggregates)	binding affinity with respect to the α-synuclein aggregates (α-synuclein aggregates [4])
bound to α-synuclein lesions				CNc1ccc(C#C/C=C/c2nc3ccc(OCC(O)CF)cc3s2)cn1 (stereo not shown) [Compound C05-05, reference compound]	delivered into the brain and further into neurons of the living body			
bound to α-synuclein lesions	greater	higher	bound to α-synuclein aggregates	CNc1cnc(C#C/C=C/c2nc3ccc(OCC(O)CF)nc3s2)cn1 (stereo not shown) [SPAL-E-17, (E)-1-fluoro-3-((2-(4-(5-(methylamino)pyrazin-2-yl)but-1-en-3-yn-1-yl)thiazolo[5,4-b]pyridin-5-yl)oxy)propan-2-ol]	delivered into the brain and further into neurons of the living body	bound to a lesion caused by phosphorylated α-synuclein		
bound to α-synuclein lesions	greater	higher	bound to α-synuclein aggregates	CNc1cnc(C#C/C=C/c2nc3ccc(NCC(O)CF)cc3s2)cn1 (stereo not shown) [SPAL-T-83, (E)-1-fluoro-3-((2-(4-(5-(methylamino)pyrazin-2-yl)but-1-en-3-yn-1-yl)benzo[d]thiazol-6-yl)amino)propan-2-ol]	delivered into the brain and further into neurons of the living body	bound to a lesion caused by phosphorylated α-synuclein		
bound to α-synuclein lesions	greater	higher	bound to α-synuclein aggregates	CNc1ccc(C#C/C=C/c2nc3ccc(NCC(O)CF)cc3s2)cn1 (stereo not shown) [SPAL-T-95, (E)-1-fluoro-3-((2-(4-(6-(methylamino)pyridin-3-yl)but-1-en-3-yn-1-yl)benzo[d]thiazol-6-yl)amino)propan-2-ol]	delivered into the brain and further into neurons of the living body	bound to a lesion caused by phosphorylated α-synuclein		
				CN([11CH3])c1ncc(/C=C/c2nc3ccc(OCCF)cc3o2)s1 [[^11C]BF-227]			low binding selectivity	insufficient binding affinity
